Measured values published in ChEMBL document CHEMBL1147689, “Development of withaferin A analogs as probes of angiogenesis” (Bioorg Med Chem Lett, 2006).
The source made the active and inactive calls. No cut-off for these calls is given here.

Key:
Format in all cases: functional, cell-based
Details in all cases: Homo sapiens
[1] = tested on: HUVEC; assay: Ability to block bFGF-induced vessel growth in the type 1 collagen matrix at 500 nM
[2] = tested on: HUVEC; assay: Ability to block bFGF-induced vessel growth in the type 1 collagen matrix at 5 uM
[3] = tested on: HUVEC; assay: Increase of ubiquitinated protein level in TNF-alpha-treated HUVEC at 5 uM
[4] = tested on: HUVEC; assay: Ability to block bFGF-induced vessel growth in the type 1 collagen matrix at 1 uM

Compound: CC1=C(COC(=O)CNC(=O)CCCCCNC(=O)CCCCCNC(=O)CCCC[C@@H]2SCC3NC(=O)NC32)C(=O)OC([C@@H](C)C2CCC3C4C[C@H]5O[C@]56[C@@H](O)C=CC(=O)[C@]6(C)C4CC[C@@]32C)C1 (stereo not given in full)
- Activity [1]: inactive
- Activity [2]: Active
- Activity [3]: Active

Compound: CC1=C(CO)C(=O)OC([C@@H](C)C2CCC3C4C(CC[C@@]32C)[C@@]2(C)C(=O)C=CC[C@]2(O)[C@H]2O[C@@H]42)C1 (stereo not given in full)
- Activity [2]: inactive

Compound: CC1=C(CO)C(=O)O[C@@H]([C@@H](C)[C@H]2CC[C@H]3[C@@H]4C[C@H]5O[C@]56[C@@H](O)C=CC(=O)[C@]6(C)[C@H]4CC[C@]23C)C1
- Activity [4]: Active
